Entries after “also recorded” stand apart in the source; their conditions may differ. A value given as a limit tells only on which side of the number the result lay.

In data set [1] the test system is YopE secretion by attenuated Y. pestis. Put plainly: microbe, parasite or virus in culture. The note with it: for inhibition at 100 µM / inhibition at 10 µM: Yersinia pestis, 1 h; for inhibition at 100 µM: read-out: Inhibition of YopE secretion at 100 µM; for inhibition at 10 µM: read-out: Inhibition of YopE secretion at 10 µM. The class given is cell-based, Yersinia pestis KIM19.

Data set [2] deals with Attenuated Y. pestis KIM19 strain. The class given is cell-based, Yersinia pestis.
In data set [3] the test system is HeLa cells incubated with attenuated Y. pestis KIM19 strain.
For data set [4] the test system is unchanged. Put plainly: cells. The conditions noted are these: Homo sapiens, 3 h; for inhibition at 10 µM: read-out: Inhibition of HeLa cell toxicity by attenuated Y. pestis at 10 µM; for inhibition at 50 µM: read-out: Inhibition of HeLa cell toxicity by attenuated Y. pestis at 50 µM.
Another data set is described as follows: in vitro. The conditions noted are these: human, hela cells.

On to `CNC(=O)C1CN(C(=O)COC(=O)c2cc(-c3cccs3)nc3ccccc23)c2ccccc2O1` (stereo not shown) [Compound 9652], for which the inhibition at 100 µM in data set [1] amounted to 30%.
For the compound `Cc1ccc(S(=O)(=O)N2CCCN(c3ccc([N+](=O)[O-])c4nonc34)CC2)cc1` [Compound 1504], in data set [1], the “Inhibition of YopE secretion (in words)” value is “poor inhibitors of the YopE secretion”.
For `O=C(CNC(=O)c1sc2ccccc2c1Cl)Nc1ccc(-n2cnc3ccccc32)cc1` [Compound 7832], in data set [1], the “Inhibition of YopE secretion at 50 µM or lower concentration” value is “at least 50%”, the inhibition at 10 µM was no less than 95% and the inhibition at 100 µM is no less than 80%. For the same compound, in data set [2], the “Effect on growth rate of Y. pestis in bacterial medium (in words)” value (shortened to “Effect on growth rate of Y. pestis”) is reported as “none of them had a significant effect on the growth rate; also recorded: minimal bacterial growth inhibition”. Besides, in data set [3], the “Effectiveness in the cell infection model (in words)” value (from here on “Effectiveness”) was “only moderately effective”. Moreover, in data set [4], the inhibition at 10 µM came to 0% and the inhibition at 50 µM stood at 30%. The compound also returned a cytotoxicity at 100 µM in “in vitro” of 0%.
As to `CC(=O)Nc1ccc(N2C(=O)c3ccc(C(=O)OC(C)C(=O)c4c[nH]c5ccccc45)cc3C2=O)cc1` (stereo not shown) [Compound 7812], in data set [1], the “Inhibition of YopE secretion at 50 µM or lower concentration” value is “at least 50%”, the inhibition at 10 µM is no less than 95% and the inhibition at 100 µM was no less than 80%. Also, the “Effect on growth rate of Y. pestis” value in data set [2] was “none of them had a significant effect on the growth rate; also recorded: minimal bacterial growth inhibition”. In addition, the “Effectiveness” value in data set [3] was “only moderately effective”. In addition, in data set [4], the inhibition at 10 µM came out at 0% and the inhibition at 50 µM is 0%. In the data set “in vitro”, this compound returned a cytotoxicity at 100 µM of 0%.
Regarding Methanol [reference compound], the “Cytotoxicity against HeLa cells, inhibition at 100 µM” value in the data set with human HeLa cells is reported as 100±1%.
`CC(=O)Nc1ccc(-c2csc(NC(=O)c3sc4nc(C)cc(C)c4c3C)n2)c(F)c1` [Compound 7146]: the “Inhibition of YopE secretion (in words)” value in data set [1] is on record as “poor inhibitors of the YopE secretion”.
With `O=C(Cc1csc(NC(=O)c2ccccc2)n1)Nn1cnc2scc(-c3ccco3)c2c1=O` [Compound 7086], in data set [1], the “Inhibition of YopE secretion at 50 µM or lower concentration” value is “at least 50%”, the inhibition at 10 µM was no less than 95% and the inhibition at 100 µM was no less than 80%. Moreover, the “Effect on growth rate of Y. pestis” value in data set [2] was “small bacteriostatic effect; also recorded: some bacteriostatic effect; also recorded: slight inhibition of bacterial growth”. In data set [3], the “Effectiveness” value is on record as “only moderately effective”. Besides, in data set [4], the inhibition at 10 µM is 0% and the inhibition at 50 µM was 20%. In the data set “in vitro”, this compound displayed a cytotoxicity at 100 µM of 26 ± 11%.

In general, inhibition refers to how much of the control response was suppressed.
